For eight compounds, Kd and Selectivity Index results are on record in ChEMBL document CHEMBL4706582, “Design, synthesis and molecular docking study of α-triazolylsialosides as non-hydrolyzable and potent CD22 ligands” (Eur J Med Chem, 2020).

Test [1] has as its target T1, B-cell receptor CD22 (Homo sapiens, UniProt P20273).
T1 sequence (P20273 whole entry): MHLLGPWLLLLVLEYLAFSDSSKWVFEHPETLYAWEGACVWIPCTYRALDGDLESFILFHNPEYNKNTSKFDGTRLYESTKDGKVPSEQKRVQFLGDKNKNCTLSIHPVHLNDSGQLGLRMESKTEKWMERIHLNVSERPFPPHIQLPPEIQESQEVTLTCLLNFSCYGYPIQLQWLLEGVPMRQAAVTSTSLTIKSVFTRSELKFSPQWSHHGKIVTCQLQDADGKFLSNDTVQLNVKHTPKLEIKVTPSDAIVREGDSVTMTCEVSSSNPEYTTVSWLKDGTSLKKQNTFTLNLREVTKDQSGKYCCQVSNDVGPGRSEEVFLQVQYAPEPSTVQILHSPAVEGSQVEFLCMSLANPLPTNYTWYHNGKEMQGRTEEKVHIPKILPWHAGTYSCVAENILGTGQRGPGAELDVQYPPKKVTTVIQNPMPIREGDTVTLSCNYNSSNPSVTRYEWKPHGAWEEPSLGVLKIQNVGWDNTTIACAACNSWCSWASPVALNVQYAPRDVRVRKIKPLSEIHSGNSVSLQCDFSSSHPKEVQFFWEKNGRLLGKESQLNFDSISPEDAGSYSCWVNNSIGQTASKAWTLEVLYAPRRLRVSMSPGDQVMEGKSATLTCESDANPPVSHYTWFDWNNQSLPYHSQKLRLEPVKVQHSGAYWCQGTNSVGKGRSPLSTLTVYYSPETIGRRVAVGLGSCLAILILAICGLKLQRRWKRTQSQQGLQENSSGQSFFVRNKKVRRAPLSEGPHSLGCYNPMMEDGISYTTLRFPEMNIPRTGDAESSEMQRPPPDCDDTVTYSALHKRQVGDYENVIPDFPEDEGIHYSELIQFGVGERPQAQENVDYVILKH
In words: Binding affinity to recombinant human CD22d1-3-Fc expressed in 293T cells by surface plasmon resonance assay. Further details: species or system HEK293T. For orientation: SPR reads the build-up and loss of mass on a sensor chip optically.

Test [2] concerns the target T2, Myelin-associated glycoprotein (Homo sapiens, UniProt P20916).
T2 sequence (P20916 whole entry): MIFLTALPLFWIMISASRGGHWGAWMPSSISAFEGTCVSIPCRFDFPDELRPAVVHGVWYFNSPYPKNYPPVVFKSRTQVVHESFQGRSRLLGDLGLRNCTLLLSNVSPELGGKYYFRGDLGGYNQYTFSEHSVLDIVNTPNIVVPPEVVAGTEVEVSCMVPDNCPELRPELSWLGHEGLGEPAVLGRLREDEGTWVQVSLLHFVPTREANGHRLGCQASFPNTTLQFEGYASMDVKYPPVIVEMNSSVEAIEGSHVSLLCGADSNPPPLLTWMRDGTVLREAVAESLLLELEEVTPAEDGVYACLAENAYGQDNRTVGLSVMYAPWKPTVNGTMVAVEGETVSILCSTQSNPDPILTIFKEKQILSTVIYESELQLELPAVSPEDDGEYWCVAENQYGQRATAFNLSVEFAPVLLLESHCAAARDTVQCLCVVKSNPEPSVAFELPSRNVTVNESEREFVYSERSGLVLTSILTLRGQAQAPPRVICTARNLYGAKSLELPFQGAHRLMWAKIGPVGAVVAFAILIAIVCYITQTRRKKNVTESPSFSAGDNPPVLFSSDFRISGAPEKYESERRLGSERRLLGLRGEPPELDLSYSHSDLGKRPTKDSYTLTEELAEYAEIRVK
Put plainly: Binding affinity to human MAG by surface plasmon resonance assay.

The species entered for test [3] is Homo sapiens. Put plainly: Selectivity index, ratio of Kd for human MAG to Kd for human CD22.

What is called Kd is the free concentration of one partner at which half of the binding sites on the other are occupied at equilibrium, for simple one-to-one binding.

With `O=C(Cc1ccc(-c2ccc(O)cc2)cc1)NC[C@@H](O)[C@@H](O)[C@@H]1O[C@](C(=O)O)(n2cc(-c3ccc(-c4ccccc4)cc3)nn2)C[C@H](O)[C@H]1NC(=O)CO`, the Kd in test [1] was 620 nM.

Take `O=C(Cc1ccc(-c2ccc(O)cc2)cc1)NC[C@@H](O)[C@@H](O)[C@@H]1O[C@](C(=O)O)(n2cc(CC3CCCCC3)nn2)C[C@H](O)[C@H]1NC(=O)CO`: the dissociation constant (Kd) in test [1] came out at 766 nM.

As to `O=C(Cc1ccc(-c2ccc(O)cc2)cc1)NC[C@@H](O)[C@@H](O)[C@@H]1O[C@](C(=O)O)(n2cc(Cc3ccccc3)nn2)C[C@H](O)[C@H]1NC(=O)CO`, the Kd in test [1] turned out to be 952 nM.

Take `O=C(Cc1ccc(-c2ccc(O)cc2)cc1)NC[C@@H](O)[C@@H](O)[C@@H]1O[C@](C(=O)O)(n2cc(COC3CCCCC3)nn2)C[C@H](O)[C@H]1NC(=O)CO`: the Kd in test [1] came out at 860 nM.

In the case of `O=C(CCCC[C@H]1SC[C@H]2NC(=O)N[C@H]21)NCCOCCOCCOCCn1cc(-c2ccc(CO[C@]3(C(=O)O)C[C@H](O)[C@@H](NC(=O)CO)[C@H]([C@H](O)[C@H](O)CNC(=O)Cc4ccc(-c5ccc(O)cc5)cc4)O3)cc2)nn1`, the Kd in test [1] turned out to be 740 nM.

With `O=C(Cc1ccc(-c2ccc(O)cc2)cc1)NC[C@@H](O)[C@@H](O)[C@@H]1OC(OCc2ccccc2)(C(=O)O)CC(O)[C@H]1NC(=O)CO` (single isomer, unassigned), the Kd was 56400 nM in test [2] and 458 nM in test [1]. Moreover, the Selectivity Index in test [3] was found to be 123.

As for `C#Cc1ccc(CO[C@]2(C(=O)O)C[C@H](O)[C@@H](NC(=O)CO)[C@H]([C@H](O)[C@H](O)CNC(=O)Cc3ccc(-c4ccc(O)cc4)cc3)O2)cc1`, the Kd in test [1] was 628 nM.

`O=C(Cc1ccc(-c2ccc(O)cc2)cc1)NC[C@@H](O)[C@@H](O)[C@@H]1O[C@](C(=O)O)(n2cc(-c3ccccc3)nn2)C[C@H](O)[C@H]1NC(=O)CO`: the Kd in test [2] was determined as 30700 nM; in test [1], 335 nM. Further, the Selectivity Index in test [3] stood at 91.6.
